Laboratory results published in patent US20230391727A1, “ANALOGUES OF PENTAMIDINE AND METHODS FOR TREATING INFECTIONS” (Auransa Inc., priority 2020, published 2023).
In brackets after ≈: the same amount, converted by molar mass. Like-named read-outs stand apart in the source and are kept apart here.

Key:
Format in all cases: cell-based
[1] = system: Candida parapsilosis, Candida krusei, Candida albicans, Candida auris, Candida glabrata, Candida guilliermondii, and Cryptococcus neoformans; assay: Anti-fungal MIC assay, summary of second round; conditions: Candida strains
Procedure: (§1) The first round of testing included Candida parapsilosis, Candida krusei, Paecilomyces variotii, Candida albicans, Aspergillus fumigatus, and Blastomyces dermatitidis. […] The second round of testing included Candida parapsilosis, Candida krusei, Candida albicans, Candida auris, Candida glabrata, Candida guilliermondii, and Cryptococcus neoformans.
(§2) Stock solutions of the investigational agent were prepared at concentrations 100-times the highest concentration to be tested (6400 μg/ml) using dimethyl sulfoxide. Aliquots of the stock solutions were dispensed into polystyrene vials and stored at −20° C.
(§3) The synthetic medium RPMI-1640 (with glutamine, without bicarbonate, and with phenol red) was used. The RPMI was buffered to a pH of 7.0+0.1 at 25° C. with 0.165M MOPS (3-[N-morpholino] propanesulfonic acid). Sterile U-shaped 96-well cell culture plates were used to perform the MIC assays. […]
(§4) Fungal isolates were grown on Sabouraud dextrose agar (yeasts) or potato flake agar (filamentous fungi) and cells were collected after an appropriate period of growth for each species being evaluated (e.g., 48-72 hours for yeasts and 7 days for filamentous fungi). The fungi were suspended in sterile distilled water, and the densities of the fungal suspension were read using a spectrophotometer and adjusted to an appropriate optical density specific for each fungal species. […]

[2] = Anti-fungal MIC assay, summary of second round; conditions: read-out: Isolate MIC (100%); range over isolates of the second round of testing
Procedure: as §1, §2, §3, §4

Candida glabrata 05-761 = assay: Anti-fungal MIC assay
Procedure: as §1, §2
(§5) The synthetic medium RPMI-1640 (with glutamine, without bicarbonate, and with phenol red) was used. The RPMI was buffered to a pH of 7.0+0.1 at 25° C. with 0.165M MOPS (3-[N-morpholino] propanesulfonic acid). Sterile U-shaped 96-well cell culture plates were used to perform the MIC assays. Dilutions of the DMSO stocks were prepared in RPMI to achieve 2× concentrations. After the dilutions of the working 2× investigational antifungal solutions were prepared, 0.1 ml of each concentration was transferred into a pre-specified column of the U-shaped 96-well cell culture plate using sterile pipettes.
(§6) Fungal isolates were grown on Sabouraud dextrose agar (yeasts) or potato flake agar (filamentous fungi) and cells were collected after an appropriate period of growth for each species being evaluated (e.g., 48-72 hours for yeasts and 7 days for filamentous fungi). The fungi were suspended in sterile distilled water, and the densities of the fungal suspension were read using a spectrophotometer and adjusted to an appropriate optical density specific for each fungal species. The fungal suspension of each isolate was then diluted in RPMI. A sufficient volume of the test inoculum was prepared to directly inoculate 0.1 ml into each test well of the 96-well cell culture plate. Final inoculum ranges were dependent on the fungal species to be tested (e.g., 0.4×103 to 5×10^3 cells/ml for yeasts and dimorphic fungi, and 0.4×104 to 5×10^4 cells/ml for filamentous fungi). Each well of the 96-well cell culture plate containing the investigational antifungal compounds (0.1 ml volume) was inoculated on the day of the assay with 0.1 ml of the fungal suspension. Growth control wells contained 0.1 ml of fungal suspension and 0.1 ml of the growth medium without antifungal agents. The media control well contained 0.2 ml of the growth medium.
(§7) The microdilution trays were incubated at 35° C. without agitation. […] One positive comparator/control was used for yeast (fluconazole) and one was used for filamentous fungi (voriconazole).

[3] = system: Candida albicans ATCC90028; assay: Anti-fungal MIC assay
Procedure: as §1, §2, §5, §6, §7

Candida auris DI17-46 = assay: Anti-fungal MIC assay; conditions: Candidozyma auris
Procedure: as §1, §2, §5, §6, §7

[4] = system: Candida guilliermondii Cgui3; assay: Anti-fungal MIC assay; conditions: Meyerozyma guilliermondii
Procedure: as §1, §2, §5, §6, §7

[5] = system: Candida parapsilosis ATCC22019; assay: Anti-fungal MIC assay; conditions: Lodderomyces parapsilosis
Procedure: as §1, §2, §5, §6, §7

[6] = system: Aspergillus fumigatus AF3; assay: Anti-fungal MIC assay
Procedure: as §1, §2, §5, §6, §7

[7] = system: Candida guilliermondii Cgui1; assay: Anti-fungal MIC assay; conditions: Meyerozyma guilliermondii
Procedure: as §1, §2, §5, §6, §7

Candida albicans CA5 = assay: Anti-fungal MIC assay
Procedure: as §1, §2, §5, §6, §7

[8] = system: Aspergillus fumigatus AF293; assay: Anti-fungal MIC assay
Procedure: as §1, §2, §5, §6, §7

[9] = system: Cryptococcus neoformans H99; assay: Anti-fungal MIC assay
Procedure: as §1, §2, §5, §6, §7

[10] = system: Aspergillus fumigatus AF2; assay: Anti-fungal MIC assay
Procedure: as §1, §2, §5, §6, §7

[11] = system: Staphylococcus aureus ATCC 33591 (MRSA); assay: MIC assay against gram positive and antibiotic-resistant S. aureus; conditions: Staphylococcus aureus ATCC 33591, MRSA; read-out: MIC
Procedure: (§8) The MICs of vancomycin and linezolid were determined as quality controls and the MIC values of each strain met the acceptance criteria based on PDS historical reference data.
(§9) The direct colony suspension method was used to prepare inoculated broth. Isolated colonies were taken from an 18-24 h culture plate. Optical density measurements (OD620 nm) were used to estimate the bacterial density. The test article, compound 3, and reference control stock solutions were prepared in 100% DMSO as 50× stock solutions. The 50× stock solutions were diluted by 2-fold serial titrations with 100% DMSO for a total of 11 concentrations. A 4 μL aliquot of each dilution was added to 196 μL of cation-adjusted Mueller Hinton Broth II medium seeded with the organism in wells of a 96 well plate. The final vehicle concentration was two percent (2%) in all assay wells. The final bacterial count was 2 to 8×10^5 CFU/mL. The final compound 3 concentration range was 16 to 0.016 μg/mL. Each test substance dilution was evaluated in duplicate on one test occasion. Vehicle-control and reference controls were used as blank and positive controls, respectively. Plates were incubated at 35-37° C. for 18 h. The test plates were visually examined and each well was visually scored for growth or complete inhibition of growth. The MIC value was recorded.

[12] = system: Staphylococcus aureus BAA-1556 (MRSA); assay: as above; conditions: Staphylococcus aureus BAA-1556, MRSA; read-out: MIC
Procedure: as §8, §9

[13] = system: Staphylococcus aureus ATCC 19636; assay: as above; conditions: ATCC19636; Staphylococcus aureus ATCC 19636; read-out: MIC
Procedure: as §8, §9

[14] = system: Staphylococcus aureus VRS-2 (VRSA); assay: as above; conditions: Staphylococcus aureus VRS-2, VRSA; read-out: MIC
Procedure: as §8, §9

[15] = read-out: MIC, 50% growth inhibition
[16] = read-out: MIC, 100% growth inhibition

## N=C(N)c1ccc(CC[C@H]2CCC[C@@H](CCc3ccc(C(=N)N)cc3)C2)cc1 [Compound 3, 4,4′-(2,2′-((1R,3S)-cyclohexane-1,3-diyl)bis(ethane-2,1-diyl))dibenzimidamide]
[1]
  anti-fungal effectiveness compared to fluconazole: more effective in killing several Candida strains of interest that are not affected by fluconazole
[2]
  MIC: 0.5 to 8 µg/mL (≈ 1.33 to 21.2 µM)
Candida glabrata 05-761; Nakaseomyces glabratus, 05761, read-out: MIC, 50% growth inhibition
  MIC: 1 µg/mL (≈ 2.66 µM)
Candida glabrata 05-761; Nakaseomyces glabratus, 05761, read-out: MIC, 100% growth inhibition
  MIC: 2 µg/mL (≈ 5.31 µM)
[3]; [15]
  MIC: 0.5 µg/mL (≈ 1.33 µM)
[3]; [16]
  MIC: 1 µg/mL (≈ 2.66 µM)
Candida auris DI17-46; DI1746, read-out: MIC, 50% growth inhibition
  MIC: 2 µg/mL (≈ 5.31 µM)
Candida auris DI17-46; DI1746, read-out: MIC, 100% growth inhibition
  MIC: 4 µg/mL (≈ 10.6 µM)
[4]; [15]
  MIC: 2 µg/mL (≈ 5.31 µM)
[4]; [16]
  MIC: 2 µg/mL (≈ 5.31 µM)
[5]; ATCC22019, C. parapsilosis ATCC 22019, second round (Table 6), read-out: MIC, 50% growth inhibition
  MIC: 0.25 µg/mL (≈ 0.664 µM)
[5]; ATCC22019, Candida parapsilosis ATCC22019, first round (Table 5), read-out: MIC, 50% growth inhibition
  MIC: 0.5 µg/mL (≈ 1.33 µM)
[5]; ATCC22019, read-out: MIC, 100% growth inhibition, C. parapsilosis ATCC 22019, second round (Table 6)
  MIC: 0.5 µg/mL (≈ 1.33 µM)
[5]; ATCC22019, read-out: MIC, 100% growth inhibition, Candida parapsilosis ATCC22019, first round (Table 5)
  MIC: 1 µg/mL (≈ 2.66 µM)
[6]; [15]
  MIC: 32 µg/mL (≈ 85 µM)
[6]; [16]
  MIC: 64 µg/mL (≈ 170 µM)
[7]; [15]
  MIC: 1 µg/mL (≈ 2.66 µM)
[7]; [16]
  MIC: 1 µg/mL (≈ 2.66 µM)
Candida albicans CA5; [15]
  MIC: 0.25 µg/mL (≈ 0.664 µM)
Candida albicans CA5; [16]
  MIC: 0.5 µg/mL (≈ 1.33 µM)
[8]; [15]
  MIC: 16 µg/mL (≈ 42.5 µM)
[8]; [16]
  MIC: 16 µg/mL (≈ 42.5 µM)
[9]; [15]
  MIC: 0.5 µg/mL (≈ 1.33 µM)
[9]; [16]
  MIC: 0.5 µg/mL (≈ 1.33 µM)
[10]; [15]
  MIC: 32 µg/mL (≈ 85 µM)
[10]; [16]
  MIC: 32 µg/mL (≈ 85 µM)
[11]
  MIC: 0.125 µg/mL (≈ 0.332 µM)
[12]
  MIC: 0.25 µg/mL (≈ 0.664 µM)
[13]
  MIC: 0.125 µg/mL (≈ 0.332 µM)
[14]
  MIC: 0.25 µg/mL (≈ 0.664 µM)
